The values below come from US20120152149A1, “USE OF 1,3-DIOLS AS BIOCIDES” (BASF SE, priority 2009, published 2012).

Molecules are shown by their SMILES. Where two headings read alike, the source gives them in different places. Where only a bound is given, the exact number is not on record here.

Holding throughout (assay type): cell-based
Assay [1] relates to P. vulgaris NCIMB 4175. The assay can be described thus: Microstatic activity, MIC in tryptone soy broth. The settings on record: Proteus vulgaris, NCIMB4175, 30° C., 48 hours. On the procedure: (§1) For this, in each case a 40 percent strength by weight solution of a diol in propylene glycol was prepared at 60° C. This solution was diluted with a double-strength soy solution (double-strength tryptone soy broth) as nutrient medium in the volume ratio 1:1. Further dilution with soy solution produced solutions with the following concentrations: 400 000 ppm (40%), 200 000 ppm (20%), 100 000 ppm (10%), 50 000 ppm (5%), 25 000 ppm (2.5%), 12 500 ppm (1.25%), 6250 ppm (0.625%), 3125 ppm (0.3125%). Pure soy solution was used as negative control. The positive control used was a solution of 5 ml of soy solution which has been treated with 0.1 ml of the respective microorganism. The test solutions consisted of 5 ml of the above-described soy solutions of the diols in the particular concentration which have been mixed with 0.1 ml of the respective microorganism. The samples and controls were incubated in the case of the bacteria at 30° C. for 48 hours, and in the case of fungi over 5 days at 25° C. In each case, the MIC (Minimum Inhibitory Concentration) value was determined. This value indicates the minimum concentration above which the growth of the microorganisms was visibly hindered compared to the corresponding sample without addition of the diol. […] For example, this was evident from the occurrence of clouding or visible growth of the microorganism. […] The MIC value stated is a range between the next higher concentration of a positive test and the same and/or lower concentration of a first negative test.

Assay [2] concerns C. albicans NCPF 3179. Put plainly: Microstatic activity, MIC in tryptone soy broth. The conditions noted are these: Candida albicans, NCPF3179, 120 h, 25° C., 5 days. As to the method:
as §1

Assay [3] relates to P. aeruginosa NCIMB 10421. The assay can be described thus: Microstatic activity, MIC in tryptone soy broth. The settings on record: Pseudomonas aeruginosa, NCIMB10421, 30° C., 48 hours. On the procedure: as §1
Assay [4] relates to E. coli NCIMB 8545. The assay can be described thus: Microstatic activity, MIC in tryptone soy broth. The settings on record: 48 hours; for MIC: Escherichia coli, NCIMB8545, 30° C. As to the method:
as §1

For assay [5], the system named is S. aureus NCIMB 9578. The assay can be described thus: Microstatic activity, MIC in tryptone soy broth. The settings on record: Staphylococcus aureus, NCIMB9578, 30° C., 48 hours. On the procedure:
as §1

The subject of assay [6] is series of tested microorganisms (bacteria and fungi). The assay can be described thus: Microstatic activity, highest MIC from the series of tested microorganisms. The conditions noted are these: highest measured MIC from the series of tested microorganisms. On the procedure: The following microorganisms were used;to test the biocidal effect against various bacteria and fungi: In each case, the MIC (Minimum Inhibitory Concentration) value was determined. This value indicates the minimum concentration above which the growth of the microorganisms was visibly hindered compared to the corresponding sample without addition of the diol. The MIC value stated is a range between the next higher concentration of a positive test and the same and/or lower concentration of a first negative test. In the last line of each of the tables below, a “maximum” value is listed. This value indicates the highest measured MIC value in each case from the series of tested microorganisms.

The subject of assay [7] is A. niger IMI 149007. Put plainly: Microstatic activity, MIC in tryptone soy broth. The settings on record: Aspergillus niger, IMI149007, 120 h, 25° C., 5 days. On the procedure:
as §1

The mark [8] stands for this setting: lower limit of MIC range, read-out: MIC value (ppm of diol), from.
Where [9] appears, read: upper limit of MIC range, read-out: MIC value (ppm of diol), to.
The mark [10] stands for this setting: lower limit, read-out: Maximum MIC value (ppm of diol), from.
The mark [11] stands for this setting: upper limit, read-out: Maximum MIC value (ppm of diol), to.

For `CC(O)CC(C)O` (stereo not drawn) [2,4-Pentanediol, 2,4-pentanediol, reference compound], the MIC – broadly, the lowest concentration found to suppress growth – in assay [1] (setting [8]) was more than 50 mg/mL; in assay [1] (setting [9]) it was not above 100 mg/mL; in assay [2] (setting [8]), more than 50 mg/mL; in assay [2] (setting [9]) it was not above 100 mg/mL; in assay [3] (setting [8]) it was more than 50 mg/mL; in assay [3] (setting [9]), not above 100 mg/mL. The MIC was more than 50 mg/mL in assay [4] (setting [8]), not above 100 mg/mL in assay [4] (setting [9]), more than 50 mg/mL in assay [5] (setting [8]) and not above 100 mg/mL in assay [5] (setting [9]).

In the case of `CCCCC(CC)(CO)CO` [BEPD, 2-butyl-2-ethylpropane-1,3-diol], the MIC in assay [6] (setting [10]) was more than 50 mg/mL; in assay [6] (setting [11]), not above 100 mg/mL; in assay [1] (setting [8]), more than 3.12 mg/mL; in assay [1] (setting [9]) it was not above 6.25 mg/mL; in assay [7] (setting [8]), more than 12.5 mg/mL; in assay [7] (setting [9]), not above 25 mg/mL. The MIC in assay [2] (setting [8]) is more than 25 mg/mL; in assay [2] (setting [9]) it was not above 50 mg/mL; in assay [3] (setting [8]) it was more than 50 mg/mL; in assay [3] (setting [9]) it was not above 100 mg/mL; in assay [4] (setting [8]), more than 6.25 mg/mL; in assay [4] (setting [9]), not above 12.5 mg/mL. The MIC in assay [5] (setting [8]) was more than 12.5 mg/mL; in assay [5] (setting [9]) it was not above 25 mg/mL.

As for `OCC1(CO)CCCCC1` [DMCH, 1,1-dimethylolcyclohexane], the MIC was more than 25 mg/mL in assay [6] (setting [10]); not above 50 mg/mL in assay [6] (setting [11]); more than 12.5 mg/mL in assay [1] (setting [8]); not above 25 mg/mL in assay [1] (setting [9]); more than 25 mg/mL in assay [7] (setting [8]); not above 50 mg/mL in assay [7] (setting [9]). For the same compound, the MIC in assay [2] (setting [8]) was more than 25 mg/mL; in assay [2] (setting [9]), not above 50 mg/mL; in assay [3] (setting [8]), more than 12.5 mg/mL; in assay [3] (setting [9]), not above 25 mg/mL; in assay [4] (setting [8]), more than 6.25 mg/mL; in assay [4] (setting [9]) it was not above 12.5 mg/mL. For the same compound, the MIC was more than 12.5 mg/mL in assay [5] (setting [8]) and not above 25 mg/mL in assay [5] (setting [9]).

Take `OCC1(CO)CCCCCCC1` [DMCO, 1,1-dimethylolcyclooctane]: the MIC is more than 12.5 mg/mL in assay [6] (setting [10]); not above 25 mg/mL in assay [6] (setting [11]); more than 6.25 mg/mL in assay [1] (setting [8]); not above 12.5 mg/mL in assay [1] (setting [9]); more than 6.25 mg/mL in assay [7] (setting [8]); not above 12.5 mg/mL in assay [7] (setting [9]). For the same compound, the MIC in assay [2] (setting [8]) is more than 6.25 mg/mL; in assay [2] (setting [9]), not above 12.5 mg/mL; in assay [3] (setting [8]), more than 12.5 mg/mL; in assay [3] (setting [9]), not above 25 mg/mL; in assay [4] (setting [8]), more than 3.12 mg/mL; in assay [4] (setting [9]) it was not above 6.25 mg/mL. The MIC was more than 6.25 mg/mL in assay [5] (setting [8]) and not above 12.5 mg/mL in assay [5] (setting [9]).

As for `OCC1(CO)CC/C=C\CCC1` [DMCOE, 1,1-dimethylolcyclooct-4-ene], the MIC in assay [6] (setting [10]) is more than 12.5 mg/mL; in assay [6] (setting [11]), not above 25 mg/mL; in assay [1] (setting [8]) it was more than 3.12 mg/mL; in assay [1] (setting [9]), not above 6.25 mg/mL; in assay [7] (setting [8]) it was more than 12.5 mg/mL; in assay [7] (setting [9]) it was not above 25 mg/mL. Further, the MIC was more than 12.5 mg/mL in assay [2] (setting [8]); not above 25 mg/mL in assay [2] (setting [9]); more than 12.5 mg/mL in assay [3] (setting [8]); not above 25 mg/mL in assay [3] (setting [9]); more than 3.12 mg/mL in assay [4] (setting [8]); not above 6.25 mg/mL in assay [4] (setting [9]). The MIC in assay [5] (setting [8]) was more than 6.25 mg/mL; in assay [5] (setting [9]) it was not above 12.5 mg/mL.

Turning to `CCC(C)(CO)CO` [EMPD, 2-ethyl-2-methylpropane-1,3-diol], the MIC is more than 50 mg/mL in assay [6] (setting [10]); not above 100 mg/mL in assay [6] (setting [11]); more than 25 mg/mL in assay [1] (setting [8]); not above 50 mg/mL in assay [1] (setting [9]); more than 50 mg/mL in assay [7] (setting [8]); not above 100 mg/mL in assay [7] (setting [9]). Besides, the MIC was more than 50 mg/mL in assay [2] (setting [8]); not above 100 mg/mL in assay [2] (setting [9]); more than 12.5 mg/mL in assay [3] (setting [8]); not above 25 mg/mL in assay [3] (setting [9]); more than 12.5 mg/mL in assay [4] (setting [8]); not above 25 mg/mL in assay [4] (setting [9]). Further, the results for the MIC in assay [5] (setting [8]) and in assay [5] (setting [9]) were more than 25 mg/mL and not above 50 mg/mL, respectively.

Regarding `CC(C)CCC(CO)(CO)C(C)C` [IMBPD, 2-isopropyl-2-(3-methylbutyl)propane-1,3-diol], the MIC in assay [6] (setting [10]) is more than 100 mg/mL; in assay [1] (setting [8]), more than 50 mg/mL; in assay [1] (setting [9]), not above 100 mg/mL; in assay [7] (setting [8]) it was more than 12.5 mg/mL; in assay [7] (setting [9]), not above 25 mg/mL; in assay [2] (setting [8]), more than 25 mg/mL. In addition, the MIC was not above 50 mg/mL in assay [2] (setting [9]); more than 100 mg/mL in assay [3] (setting [8]); more than 25 mg/mL in assay [4] (setting [8]); not above 50 mg/mL in assay [4] (setting [9]); more than 50 mg/mL in assay [5] (setting [8]); not above 100 mg/mL in assay [5] (setting [9]).

Turning to `CC(CO)(CO)c1ccccc1` [MPPD, 2-methyl-2-phenylpropane-1,3-diol], the MIC in assay [6] (setting [10]) is more than 50 mg/mL; in assay [6] (setting [11]), not above 100 mg/mL; in assay [1] (setting [8]), more than 3.12 mg/mL; in assay [1] (setting [9]) it was not above 6.25 mg/mL; in assay [7] (setting [8]) it was more than 50 mg/mL; in assay [7] (setting [9]) it was not above 100 mg/mL. Besides, the minimum inhibitory concentration (MIC) in assay [2] (setting [8]) was more than 50 mg/mL; in assay [2] (setting [9]), not above 100 mg/mL; in assay [3] (setting [8]), more than 25 mg/mL; in assay [3] (setting [9]) it was not above 50 mg/mL; in assay [4] (setting [9]), not above 3.12 mg/mL; in assay [5] (setting [8]), more than 12.5 mg/mL. Besides, in assay [5] (setting [9]), the MIC is not above 25 mg/mL. The “MIC value (ppm of diol), from” value in assay [4] (30° C., lower limit of MIC range) is given as more than 0 ppm.

As for `CC(O)CO` (stereo not drawn) [Propylene glycol, propylene glycol, reference compound], the MIC in assay [1] (setting [8]) and in assay [3] (setting [8]) was more than 100 mg/mL in each case.
